Test results from US11253589B2, “Modulation of the immune response” (priority 2007, dated 2022).
“Also recorded” adds a separate entry of the source.

Assays:
C57BL/6 mice = assay: EAE induced by immunization with MOG35-55 in CFA; assay type: in vivo, mouse; parameters: EAE severity: dose or concentration left out as unconfirmed
myelin specific T cells = assay: Recall response (proliferation, cytokine secretion) to MOG35-55 or anti-CD3 of cells from treated mice; assay type: in vivo, mouse
Description: Cells were cultured in serum-free X-VIVO 20™ media (BioWhittaker, Walkersville, Md., USA) for 72 hours. During the last 16 hours, cells were pulsed with 1 μCi of [^3H]thymidine (PerkinElmer, Waltham, Mass., USA) followed by harvesting on glass fiber filters and analysis of incorporated [^3H]thymidine in a beta-counter (1450 Microbeta, Trilux, PerkinElmer). Alternatively, culture supernatants were collected […] activation and the cytokine concentration was determined by ELISA using antibodies for IFN-γ, IL-17, IL-4, IL-10 from BD Biosciences and antibodies to TGF-β from R&D Systems. For suppression assays, MACS purified CD4^+CD25^− T cells from naïve C57BL/6 mice (1-5×10^4 cells/well) were stimulated with antibodies to CD3 and C57BL/6 irradiated spleen cells (0.3-1.5×10^4 cells/well) for 3 days in the presence of different ratios of CD4^+ GFP^+ retrovirus-transduced T cells.
To further characterize the suppression of EAE by AHR activation we studied the activity of myelin specific T cells induced by vaccination with MOG35-55/CFA in TCDD-treated mice.
(§1) In addition, cells were stimulated in culture medium containing 100 μg/ml MOG35-55 for 2 days or with PMA (50 ng/ml) (Sigma-Aldrich) and ionomycin ([…]) (Calbiochem, San Diego, Calif., USA) for 4 hours, Golgistop (BD Biosciences) was added to the culture during the last 4 hours. After staining of surface markers, cells were fixed and permeabilized using Cytofix/Cytoperm and Perm/Wash buffer from BD Biosciences according to the manufacturer's instructions. All antibodies to cytokines (IFN-gamma, IL-17, IL-10) including the corresponding isotype controls were obtained from BD Biosciences. Cells were incubated (1:100) at 25° C. for 20 min and washed twice in Perm/Wash before analysis. Data were acquired on a FACSCalibur (BD Biosciences) and analyzed with FlowJo software (Tree Star, Ashland, Oreg., USA).
We then studied the effect of ITE administration on the encephalitogenic response against myelin. EAE was induced on naïve C57BL/6 mice and ITE ([…]) was administered orally or intraperitoneally on daily basis.

[1] = test system: CD4+IL-17+ and CD4+IFNg+ T cells; assay: Frequency of CD4+IL-17+ and CD4+IFNg+ T cells by FACS; assay type: in vivo, mouse
Description: as §1
To confirm the suppressive effects of AHR activation on the generation of T cells secreting IFNg and IL17, IFNg^+ and IL17^+ CD4^+ T cells were quantified by FACS in the draining lymph nodes ten days after footpad immunization and intraperitoneal administration of ITE ([…]).

CD4+CD25- T cells = CD4+CD25- T cells activated with antibodies to CD3 in the presence of TCDD; assay type: cell-based, mouse; details: incubation with TCDD
Description: To rule out any direct cytotoxic or pro-apoptotic effect of TCDD on effector T cells, purified mouse CD4^+CD25^− T cells were activated in vitro with antibodies to CD3 in the presence of TCDD.

[2] = test system: CD4+ CD62L+CD45RO- T cells; assay: In vitro differentiation of human naive CD4+ T cells, suppression and real time PCR; assay type: cell-based
Description: To investigate the potential of AHR targeting for the induction of human Treg we activated purified naïve CD4^+ CD62L^+CD45RO^− T cells for healthy donors for 5 days with antibodies to CD3 and CD28 in the presence of TCDD 100 nM or TGFb1 2.5 ng/ml or both.
To study the functionality of the putative human Treg induced in the presence of TCDD we studied their suppressive activity of CD4^+ CD25^High and CD4^+CD25^Low T cells following 5 days of activation in the of TCDD or TGFb1 2.5 ng/ml or both.
To investigate the mechanism mediating the suppressive activity of the TCDD-induced Treg, we analyzed them by real time PCR for the expression of several genes that have been previously linked to the suppressive function of Treg. […] Accordingly, IL-10-specific blocking antibodies could interfere with the suppressive activity of Treg induced with TCDD, but not the of those induced with TGFb1 and TCDD (FIG. 42). Thus, TCDD-induced CD4^+CD25^High T cells are FoxP3^− regulatory cells whose suppressive activity is mediated, at least partially, via IL-10, resembling the phenotype of type 1 Treg (Roncarolo et al., Immunol Rev. 212, 28 (2006); Roncarolo and Gregori, Eur J Immunol. 38, 925 (2008)).

mutant AHR = details: Okey et al. 1989; cited from earlier work
[3] = ITE 200 μg/mouse daily, either orally or intraperitoneally
[4] = CD4+ T cells from ITE-treated mice vs control
[5] = ITE 200 mg/mice daily (FIG. 22: IP), splenocytes
[6] = ITE 200 mg/mice intraperitoneal, draining lymph nodes ten days after footpad immunization
[7] = C57BL/6 (WT) mice, TCDD 1 μg/mouse, Table 4
[8] = cells purified from TCDD-treated Foxp3gfp mice
[9] = draining lymph node cells of TCDD-treated mice vs control
[10] = lymph node cells of TCDD-treated mice, 10 days after MOG35-55/CFA
[11] = draining lymph nodes of TCDD-treated mice

## COC(=O)c1csc(C(=O)c2c[nH]c3ccccc23)n1 [ITE, 2-(1′H-indole-3′-carbonyl)-thiazole-4-carboxylic acid methyl ester]
C57BL/6 mice; ITE 200 μg/mouse at weekly intervals instead of daily
  protective effects on EAE: complete loss of tis protective effects on EAE; also recorded: fails to suppress EAE development
C57BL/6 mice; [3]
  EAE clinical score: significant reduction of EAE clinical score
  EAE development (delay): significant delay on EAE development
C57BL/6 mice; administered on a daily basis
  EAE severity: significant reduction on EAE severity
Myelin specific T cells; [4]
  IFNg secretion upon activation with MOG35-55: lower amounts
  IL2 secretion upon activation with MOG35-55: lower amounts
  IL6 secretion upon activation with MOG35-55: lower amounts
  IL17 secretion upon activation with MOG35-55: lower amounts
  IL-10 secretion upon activation with MOG35-55: higher amounts
  TGFb1 secretion upon activation with MOG35-55: higher amounts
Myelin specific T cells; Foxp3gfp mice, ITE 200 mg/mice intraperitoneal daily
  recall response of purified CD4+ T cells: suppressed response to MOG35-55 but not to anti-CD3
Myelin specific T cells; [5]
  proliferative response upon activation with antibodies to CD3: no differences were seen
  recall proliferative response to the MOG35-55 peptide: suppressed recall proliferative response
Myelin specific T cells; ITE-treated mice
  secretion of IFNg by lymph node cells activated with MOG35-55 or αCD3: significant reduction in the secretion
  secretion of IL-17 by lymph node cells activated with MOG35-55 or αCD3: significant reduction in the secretion
[1]; [6]
  frequency of CD4+IFNg+ T cells: decrease in the frequency
  frequency of CD4+IL17+ T cells: decrease in the frequency

## Clc1cc2c(cc1Cl)Oc1cc(Cl)c(Cl)cc1O2 [TCDD, 2,3,7,8 tetrachlorodibenzo-p-dioxin]
C57BL/6 mice; AHR-ligand loaded nanoparticles, 45 femtomoles weekly starting at day 0
  EAE development: complete suppression of EAE
C57BL/6 mice; [7]
  Mean day of onset (Mean ± SD): 21 days
  Mean maximum score (mean ± SD): 0.2 ± 0.6
C57BL/6 mice; IP administered TCDD, day 19 after EAE induction
  histopathological signs of EAE (cellular infiltrate, demyelination, axonal loss in spinal cord): reduced the histopathological signs of EAE; also recorded: inhibits CNS inflammation, demyelination and axonal loss
C57BL/6 mice; TCDD 0.01 μg per mouse ip
  Incidence (positive/total): 7/7
  Mean day of onset (Mean ± standard deviation (SD)): 14.1 ± 2.9 days
C57BL/6 mice; TCDD 0.01 μg per mouse ip, EAE score 0-5
  Mean maximum score (mean ± SD): 2.7 ± 0.6
C57BL/6 mice; TCDD 0.1 μg per mouse ip
  Mean day of onset (Mean ± standard deviation (SD)): 17.0 ± 1.2 days
C57BL/6 mice; TCDD 0.1 μg per mouse ip, EAE score 0-5
  Mean maximum score (mean ± SD): 3.1 ± 0.5
C57BL/6 mice; TCDD 1 μg per mouse ip, then MOG35-55/CFA
  Mean day of onset (Mean ± standard deviation (SD)): 21.8 ± 1.5 days
C57BL/6 mice; TCDD 1 μg per mouse ip, then MOG35-55/CFA, EAE score 0-5
  Mean maximum score (mean ± SD): 0.2 ± 0.6
C57BL/6 mice; TCDD 1 μg/mouse ip
  clinical signs of EAE: markedly inhibited the clinical signs of EAE
C57BL/6 mice; TCDD 1 μg/mouse orally, one day before EAE induction
  EAE development: prevented EAE development
C57BL/6 mice; natural Treg depleted with antibodies to CD25 prior to TCDD treatment
  onset of EAE: significant delay in the onset of EAE
CD4+CD25- T cells; antibodies to CD3
  T cell apoptosis (annexin-FITC staining): did not increase T cell apoptosis
CD4+CD25- T cells; antibodies to CD3, 72 hours
  proliferative response: did not decrease the proliferative response
Myelin specific T cells; [8]
  proliferation of effector CD4+ Foxp3:GFP- T cells to MOG35-55: normal proliferation
  secretion of IFNγ by effector CD4+ Foxp3:GFP- T cells upon activation with MOG35-55: significantly decreased secretion
  secretion of IL-17 by effector CD4+ Foxp3:GFP- T cells upon activation with MOG35-55: significantly decreased secretion
Myelin specific T cells; [9]
  IFNg secretion upon activation with MOG35-55: lower amounts
  IL-17 secretion upon activation with MOG35-55: lower amounts
  TGFb1 secretion upon activation with MOG35-55: higher amounts
Myelin specific T cells; [10]
  proliferative response upon activation with antibodies to CD3: no differences were seen
  recall proliferative response to the MOG35-55 peptide: suppressed recall proliferative response
[1]; [11]
  frequency of CD4+IFNg+ T cells: decrease in the frequency
  frequency of CD4+IL-17 T cells: decrease in the frequency
[1]; natural Treg depleted with antibodies to CD25 prior to TCDD treatment, day 18
  IL-17+CD4+ T cells in the draining lymph nodes: significant reduction; also recorded: significant decrease in the frequency
[2]; 5 days activation with antibodies to CD3 and CD28, TGFb1 2.5 ng/ml or TCDD alone
  induction of suppressive (regulatory) T cells: generation of both CD4^+ CD25^High and CD4^+ CD25^Low functional human regulatory T cells
[2]; TCDD 100 nM
  IL-10 expression (real time PCR): increased levels of IL-10
[2]; TCDD 100 nM and TGFb1 2.5 ng/ml
  FoxP3 expression (real time PCR): significantly up-regulated
[2]; TCDD 100 nM in the absence of TGFb1
  FoxP3 expression (real time PCR): marginal induction of FoxP3 expression
[2]; TCDD 100 nM, antibodies to CD3 and CD28, 5 days
  induction of CD4+ FoxP3+ T cells: in some (FIG. 36) but not all human samples
[2]; TCDD together with TGFb1 2.5 ng/ml
  suppressive activity of T cells generated with TCDD: amplified in the presence of TGFb1
Mutant AHR
  reduction in affinity of mutant AHR (d allele) for TCDD: 10 fold
